Experimental data published in PubChem BioAssay AID256 (DTP/NCI, 2004).
Values joined by “and” are separate entries in the source; they are usually repeats but may differ in a detail not shown here. Identical values can stand only once. Inconclusive results and toxic doses are left out. Rule for the calls: active = survival T/C of 150% or more; inactive = T/C below 125% in these data.

Test system: CD2F1 mice, L1210 leukemia ip, survival T/C
Assay: NCI In Vivo Anticancer Drug Screen. Data for tumor model L1210 Leukemia (intraperitoneal) in CD2F1 (CDF1) mice
Settings: endpoint: mean survival time, higher = longer survival
In short: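 Mice carrying a transplanted tumor received test compound or vehicle alone. The value is the measurement in the treated group divided by that in the vehicle-treated control group.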

[1] = dose: 100.0 mg/kg/injection, schedule: Q04DX003 (ip), vehicle: saline with Tween-80
[2] = dose: 200.0 mg/kg/injection, schedule: Q04DX003 (ip), vehicle: saline with Tween-80
[3] = dose: 400.0 mg/kg/injection, schedule: Q04DX003 (ip), vehicle: saline with Tween-80
[4] = dose: 100.0 mg/kg/injection, schedule: Q01DX009 (ip), vehicle: saline with Tween-80
[5] = dose: 200.0 mg/kg/injection, schedule: Q01DX009 (ip), vehicle: saline with Tween-80
[6] = dose: 400.0 mg/kg/injection, schedule: Q01DX009 (ip), vehicle: saline with Tween-80
[7] = dose: 50.0 mg/kg/injection, schedule: Q04DX003 (ip), vehicle: saline
[8] = dose: 100.0 mg/kg/injection, schedule: Q04DX003 (ip), vehicle: saline
[9] = dose: 200.0 mg/kg/injection, schedule: Q04DX003 (ip), vehicle: saline

Measured: T/C

Cc1ccc([NH-])c(Cl)c1.Cc1ccc([NH-])c(Cl)c1.[Cl][Pt+2][Cl]
inactive: dose: 12.5 mg/kg/injection, schedule: Q04DX003 (ip), vehicle: saline with Tween-80 95 % of control | dose: 25.0 mg/kg/injection, schedule: Q04DX003 (ip), vehicle: saline with Tween-80 97 % of control | dose: 50.0 mg/kg/injection, schedule: Q04DX003 (ip), vehicle: saline with Tween-80 97 % of control | [1] 97 % of control | [2] 89 % of control

Cc1cc(=O)cc(CC(=O)C(=O)O)o1
inactive: dose: 100.0 mg/kg/injection, schedule: Q01DX009 (ip), vehicle: saline sonified 101 % of control | [1] 97 % of control | [2] 95 % of control | [3] 97 % of control

CCOC(=O)NC(CCl)C(=O)OC (stereo not given)
inactive: [4] 104 % of control | [5] 98 % of control | [6] 98 % of control

CC(CC(=O)O)(C(=O)O)S(=O)O (stereo not given)
inactive: dose: 100.0 mg/kg/injection, schedule: Q04DX002 (ip), vehicle: other 97 % of control | dose: 200.0 mg/kg/injection, schedule: Q04DX002 (ip), vehicle: other 100 % of control | dose: 400.0 mg/kg/injection, schedule: Q04DX002 (ip), vehicle: other 100 % of control

CC1CC(C)(C)C(C[NH-])C1[NH-].[Cl][Pt+2][Cl] (stereo not given)
active: [7] 261 % of control | [8] 158 % of control and 211 % of control
inactive: dose: 3.12 mg/kg/injection, schedule: Q04DX003 (ip), vehicle: saline 115 % of control | [9] 94 % of control

O=C1CC(=O)NC(=O)N1
inactive: [4] 102 % of control | [5] 97 % of control | [6] 96 % of control

C=C1N(c2ccccc2)C(=O)OC1(C)C
inactive: dose: 100.0 mg/kg/injection, schedule: Q04DX002 (ip), vehicle: saline with Tween-80 112 % of control | dose: 200.0 mg/kg/injection, schedule: Q04DX002 (ip), vehicle: saline with Tween-80 112 % of control | dose: 400.0 mg/kg/injection, schedule: Q04DX002 (ip), vehicle: saline with Tween-80 122 % of control

O=C(Cl)OC1CS(=O)(=O)CC1O (stereo not given)
inactive: [1] 98 % of control | [2] 98 % of control | [3] 101 % of control

CNCCSSCCN
inactive: dose: 50.0 mg/kg/injection, schedule: Q01DX009 (ip), vehicle: saline with Tween-80 95 % of control | [7] 98 % of control | [4] 93 % of control | [8] 93 % of control | [9] 98 % of control | dose: 400.0 mg/kg/injection, schedule: Q04DX003 (ip), vehicle: saline 98 % of control

CC1CC(OC(=O)c2ccccc2)CCC1=O (stereo not given)
inactive: dose: 5.0 mg/kg/injection, schedule: Q01DX001 (ip), vehicle: other 102 % of control | dose: 10.0 mg/kg/injection, schedule: Q01DX001 (ip), vehicle: other 106 % of control | dose: 20.0 mg/kg/injection, schedule: Q01DX001 (ip), vehicle: other 103 % of control | dose: 40.0 mg/kg/injection, schedule: Q01DX001 (ip), vehicle: other 108 % of control | dose: 80.0 mg/kg/injection, schedule: Q01DX001 (ip), vehicle: other 96 % of control

S=C(Nc1ccc(Cl)c(Cl)c1)N1c2ccccc2-n2cccc2C1c1cccnc1 (stereo not given)
inactive: dose: 12.5 mg/kg/injection, schedule: Q01DX009 (ip), vehicle: Klucel (hydroxypropylcellulose) (HPC) 96 % of control and 104 % of control | dose: 25.0 mg/kg/injection, schedule: Q01DX009 (ip), vehicle: Klucel (hydroxypropylcellulose) (HPC) 98 % of control and 105 % of control | dose: 50.0 mg/kg/injection, schedule: Q01DX009 (ip), vehicle: Klucel (hydroxypropylcellulose) (HPC) 104 % of control and 109 % of control | dose: 100.0 mg/kg/injection, schedule: Q01DX009 (ip), vehicle: Klucel (hydroxypropylcellulose) (HPC) 113 % of control and 114 % of control and 107 % of control | dose: 200.0 mg/kg/injection, schedule: Q01DX009 (ip), vehicle: Klucel (hydroxypropylcellulose) (HPC) 115 % of control and 120 % of control and 123 % of control | dose: 400.0 mg/kg/injection, schedule: Q01DX009 (ip), vehicle: Klucel (hydroxypropylcellulose) (HPC) 112 % of control

CN(C)c1ccc(N=Nc2ccccc2)cc1
inactive: dose: 31.25 mg/kg/injection, schedule: Q01DX009 (ip), vehicle: saline with Tween-80 98 % of control | dose: 62.5 mg/kg/injection, schedule: Q01DX009 (ip), vehicle: saline with Tween-80 96 % of control | dose: 62.5 mg/kg/injection, schedule: Q04DX003 (ip), vehicle: saline with Tween-80 93 % of control | dose: 125.0 mg/kg/injection, schedule: Q04DX003 (ip), vehicle: saline with Tween-80 95 % of control

O=C1NC(=S)NC(=O)C1Cc1ccccc1O
inactive: dose: 100.0 mg/kg/injection, schedule: Q01DX001 (ip), vehicle: saline 100 % of control | dose: 200.0 mg/kg/injection, schedule: Q01DX001 (ip), vehicle: saline 100 % of control | dose: 400.0 mg/kg/injection, schedule: Q01DX001 (ip), vehicle: saline 101 % of control

CC(C)C1CC2CCC3C(C)(C(=O)O)CCCC3(C)C2CC1CO (stereo not given)
inactive: [4] 87 % of control | [5] 91 % of control | [6] 86 % of control
